The values below come from patent US5753221A, “Transformed erythrocytes, process for preparing the same, and their use in pharmaceutical compositions” (priority 1991, dated 1998).

One data set concerns HIV. Conditions: cited from earlier work.
For data set [1] the following is noted: cited from earlier work.
In a further data set the target is cytidine deaminase (Homo sapiens, UniProt P32320). Conditions: cited from earlier work.
Data set [2] deals with human erythrocytes lysates. The data set is described as follows: ddCTP stability in human erythrocytes lysates (HPLC). The data set is classed as in vitro ADME. The note with it: for time stable in erythrocyte lysate: in the presence or absence of ATP. The procedure: Human erythrocytes lysates were prepared by adding 2 volumes of 3 mM sodium potassium phosphate buffer, pH 7.4, containing 3 mM mercaptoethanol, 0.5 mM EDTA to each volume of washed and packed erythrocytes. After 30 min at 4° C., the lysates were centrifuged for 1 h at 12,000×g to remove the cell membranes. The supernatants were then dialyzed overnight against 160 volumes of 0.9% (w/v) NaCl containing 10 mM Tris-HCl, pH 7.5, 10 mM MgCl2 and 0.02 mM EDTA. The dialyzed lysates were then used for the studies of ddCTP stability. Briefly, 900 μl of lysate containing ddCTP 50 μM, 100 μM, 300 μM, 1.2 mM or 1.5 mM in a final volume of 1.2 ml were incubated at 37° C. At time intervals of 0, 15, 30 and 60 min, 250 μl of the incubation mixtures were removed and extracted with 125 μl of 10% (v/v) HClO4. The perchloric acid extract was then neutralized with 23 μl of a 3M solution of K2 CO3, diluted with 60 μl of 0.1M sodium potassium phosphate buffer pH 6.5, centrifuged 10 min at 10,000 rpm in an Eppendorf microcentrifuge and 100 μl of extract analyzed by HPLC as described below. […] Integration of peak areas was obtained by means of an HP 3390A electronic integrator (Hewlett-Packard, Avondale, Pa., U.S.A.). A 5 μm Supelcosil LC-18 column (250 mm×4.6 mm I.D., Supelco, Bellefonte, Pa., U.S.A.) protected by a guard column (Pelliguard LC-18, 20 mm×4.6 mm I.D., pellicular packing material, 40 μm particles) was used throughout these studies. […] All buffer solutions, as well as standards and sample solutions, were filtered through a 0.22 μm membrane filter (Millipore).
The elution conditions used to obtain the chromatograms were: 2 min 100% buffer A, 4 min up to 10% buffer B, 4 min up to 40% buffer B, 3 min up to 100% buffer B and the same conditions are maintained for 7 min. The gradient was then returned to 100% buffer A in 2 min and the initial conditions restored in 8 min. The flow-rate was 1.3 ml/min and the detection wavelength was 272 nm. The analyses were performed at room temperature. Quantitative measurements were carried out by injection of standard solutions of known concentration.

Data set [3] in a line: Stability of ddCTP in intact ddCTP-loaded erythrocytes. Type of data set: in vitro ADME, human. Conditions: human, erythrocytes; incubation time over 3 h, 37° C; read-out: decay of ddCTP. The protocol: (§1) In this case the stability of ddCTP (1 mM) in loaded erythrocytes was evaluated at 37° C. by incubation of ddCTP-loaded erythrocytes at 6% hematocrit in 0.9% (w/v) NaCl containing 10 mM glucose, 5 mM sodium, potassium phosphate buffer, pH 7.4. At different time intervals (0 to 5 h) aliquots (200 μl) of the incubation suspensions were extracted with 100 μl 10% (w/v) HClO4, centrifuged, neutralized and submitted to HPLC analyses as above. In some experiments ^3 H-ddCTP (4 Ci/mmol, Moravek Biochemicals, Inc. Brea Ca) was used.
(§2) In this case fractions of 0.3 ml were collected at the exit of the wavelength detector of the HPLC system by using an LKB fraction collector and counted in a Packard liquid scintillation Counter. Both methods (HPLC detection and liquid scintillation counting) provided similar results (i.e. ddCTP was stable in erythrocytes until ATP was maintained at physiological concentrations of 1.2 mM, while ddCTP dephosphorylation starts when ATP fall down to values lower than 1 mM.

Data set [4] concerns human erythrocytes. The description is as above. Type of data set: in vitro ADME. The protocol: as §1, §2
Data set [5] concerns human monocytes/macrophages. The data set is described as follows: Delivery of 3H-ddCTP to monocytes/macrophages by phagocytosis. The note with it: 3H-ddCTP-loaded erythrocytes. Type of data set: cell-based. The procedure:
Human monocytes/macrophages were prepared from heparinized blood by Lymphoprep (Nyegaard & Co Oslo, Norway) centrifugation. Mononuclear cells collected at the interface between the Lymphoprep and plasma were washed in 5 mM sodium potassium phosphate buffer, pH 7.4, containing 0.9% (w/v) NaCl, 5 mM glucose and finally resuspended in RPMI 1640 medium containing 10% (v/v) fetal bovine serum (FCS). 8.10^6 cells were placed into 100 mm Corning dish and incubated overnight at 37° C. and 5% CO2. Adherent monocytes/macrophages cells were separated from the lymphocytes by three washing steps in RPMI/FCS medium, counted by Tripan blue exclusion dye and incubated with ddCTP-loaded erythrocytes treated or not with ZnCl2 plus BS^3 or with unloaded erythrocytes overnight at 37° C. at a ratio of 100 erythrocytes per monocytes/macrophages. During the loading procedure ^125 I-ubiquitin (2.1 mCi/mg) was also encapsulated as an internal marker to follow phagocytosis both into ddCTP-loaded on ddCTP-unloaded erythrocytes. (Ubiquitin is a polypeptide of 8 KDa that can be easily encapsulated and is retained by the erythrocytes).
After monocytes/macrophages-erythrocytes incubation the dishes were extensively washed with RPMI 1640 medium to remove all erythrocytes not phagocytosed, followed by a 0.9% ammonium chloride washing step to remove adherent erythrocytes that were not yet phagocytosed. […]

Data set [6] deals with human erythrocytes. Conditions: cited from earlier work.
The next data set concerns ddCTP dephosphorylation. The data set is described as follows: ATP inhibition of ddCTP dephosphorylation in erythrocyte lysate. The data set is classed as biochemical, human. Conditions: 2 mM ATP, 100 μM ddCTP, 37° C. The protocol:
Human erythrocytes lysates were prepared by adding 2 volumes of 3 mM sodium potassium phosphate buffer, pH 7.4, containing 3 mM mercaptoethanol, 0.5 mM EDTA to each volume of washed and packed erythrocytes. After 30 min at 4° C., the lysates were centrifuged for 1 h at 12,000×g to remove the cell membranes. The supernatants were then dialyzed overnight against 160 volumes of 0.9% (w/v) NaCl containing 10 mM Tris-HCl, pH 7.5, 10 mM MgCl2 and 0.02 mM EDTA. The dialyzed lysates were then used for the studies of ddCTP stability. Briefly, 900 μl of lysate containing ddCTP 50 μM, 100 μM, 300 μM, 1.2 mM or 1.5 mM in a final volume of 1.2 ml were incubated at 37° C. At time intervals of 0, 15, 30 and 60 min, 250 μl of the incubation mixtures were removed and extracted with 125 μl of 10% (v/v) HClO4. The perchloric acid extract was then neutralized with 23 μl of a 3M solution of K2 CO3, diluted with 60 μl of 0.1M sodium potassium phosphate buffer pH 6.5, centrifuged 10 min at 10,000 rpm in an Eppendorf microcentrifuge and 100 μl of extract analyzed by HPLC as described below. […] Integration of peak areas was obtained by means of an HP 3390A electronic integrator (Hewlett-Packard, Avondale, Pa., U.S.A.). […]

A short description of data set [7]: In vivo half life of loaded erythrocytes in mice (125I-ubiquitin radioactivity). The procedure: Similar experiments were also performed on mice erythrocytes to do in vivo studies. The results are similar to those reported above. The in vivo half life of these erythrocytes was evaluated by following the radioactivity of ^125 I-ubiquitin-loaded erythrocytes coencapsulated with ddCTP in erythrocytes treated or not with ZnCl2 and BS^3.
In this case, the radioactivity associated with the erythrocytes was determined on blood collected from the tail vein of animals receiving the erythrocytes described above.

SMILES strings stand for the structures. Where two headings read alike, the source gives them in different places. Bounds are passed on as bounds.

Sequence of cytidine deaminase (P32320 whole entry): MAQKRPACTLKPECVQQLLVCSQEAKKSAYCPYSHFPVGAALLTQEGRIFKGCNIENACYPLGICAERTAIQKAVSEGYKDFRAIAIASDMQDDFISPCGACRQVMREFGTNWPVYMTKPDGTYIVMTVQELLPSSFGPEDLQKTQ

In the case of `Nc1ccn([C@H]2CC[C@@H](CO)O2)c(=O)n1` [ddCyd, 2',3'-Dideoxycytidine], the “concentration that completely protects target helper/inducer T cells against HIV infections” value with HIV (in vitro) is at least 0.5 µM. In the data set on HIV (low multiplicity of infection), the “concentration that can suppress the virus” value is listed as at least 10 nM. Besides, the concentration in [1] (0.09 mg/Kg, intravenous, 4 h, read-out: plasma level at four hours after intravenous administration) is under 100 nM; in data set [1] (patients receiving 0.09 mg/Kg, read-out: plasma level during the infusion), over 500 nM. The bioavailability entry in data set [1] (human, in vivo) is on record as “good bioavailability”. Also, the “short plasma half-life (approximate)” value in data set [1] (human, in vivo) is “approximately 1 h”. Also, on cytidine deaminase, the “resistance to cytidine deaminase” value is “resistant to cytidine deaminase”.

As for `Nc1nc2c(ncn2[C@H]2CC[C@@H](COP(=O)(O)OP(=O)(O)OP(=O)(O)O)O2)c(=O)[nH]1` [ddGTP, 2',3'-dideoxyguanosine-5'-triphosphate], the “time stable in erythrocyte lysate” value in [2] (37° C) is given as “at least 2 h”.

As to `Cc1cn([C@H]2C[C@H](N=[N+]=[N-])[C@@H](CO)O2)c(=O)[nH]c1=O` [AZT, 3'-azido-3'-deoxythymidine], in data set [1] (human, in vivo), the “short plasma half-life (approximate)” value was “approximately 1 h”.

As to `Nc1ccn([C@H]2CC[C@@H](COP(=O)(O)OP(=O)(O)OP(=O)(O)O)O2)c(=O)n1` [ddCTP, 2',3'-dideoxycytidine-5'-triphosphate], in [2], the “pH of maximum dephosphorylation rate” value is on record as 8.4. In addition, the “Vmax of dephosphorylation of ddCTP to ddCDP” value in data set [2] (37° C) is 3±0.5 nmol/min/g HB. The Km in data set [2] (37° C, read-out: Km of dephosphorylation of ddCTP to ddCDP) was 140 µM. Besides, the “dephosphorylation rate relative to maximum rate” value in data set [2] (pH 7.2 (physiological value)) is 50%. Further, the metabolised at 3 h, 1000 µM in data set [3] was determined as 20%. In addition, in the data set with human erythrocytes [4], the “ATP concentration below which ddCTP dephosphorylation starts” value is “lower than 1 mM”. Also, in the data set with human erythrocytes [4] (37° C, 1 mM ddCTP, 6% hematocrit), the “stability of ddCTP in intact cells” value is “stable even at 37 °C”. The “concentration of ddCTP in monocytes/macrophages after phagocytosis” value in data set [5] came out at 2.88 µM.

As for `Nc1ccn([C@H]2CC[C@@H](COP(=O)(O)O)O2)c(=O)n1` [ddCMP, 2',3'-dideoxycytidine-5'-phosphate], the “fate of ddCMP encapsulated in human erythrocytes” value in the data set on human erythrocytes [6] was “dephosphorylated by endogenous pyrimidine nucleotidases and subsequently released by the cells as ddCyd”.

As to `Nc1ncnc2c1ncn2[C@@H]1O[C@H](COP(=O)(O)OP(=O)(O)OP(=O)(O)O)[C@@H](O)[C@H]1O` [ATP], the “effect on ddCTP dephosphorylation” value in the data set with ddCTP dephosphorylation is “completely abolishes”.

Take `O=c1[nH]cnc2c1ncn2[C@H]1CC[C@@H](COP(=O)(O)OP(=O)(O)OP(=O)(O)O)O1` [ddITP, 2',3'-dideoxyinosine-5'-triphosphate]: the “time stable in erythrocyte lysate” value in [2] (37° C) was “at least 2 h”.

Take `Nc1ncnc2c1ncn2[C@H]1CC[C@@H](COP(=O)(O)OP(=O)(O)OP(=O)(O)O)O1` [ddATP, 2',3'-dideoxyadenosine-5'-triphosphate]: the “time stable in erythrocyte lysate” value in [2] (37° C) is given as “at least 2 h”.

Turning to `[Cl-].[Cl-].[Zn+2]` [ZnCl2], in data set [7], the “lowest ZnCl2 concentration able to modify red cell survival” value worked out at 0.1 mM.
